Assay results reported in US20190367516A1 (Bayer Pharma Aktiengesellschaft, priority 2015, published 2019).
Like-named read-outs stand apart in the source and are kept apart here.

Biological target: T1, human M2 receptor (Homo sapiens, UniProt P08172)
T1 sequence (P08172 1-466): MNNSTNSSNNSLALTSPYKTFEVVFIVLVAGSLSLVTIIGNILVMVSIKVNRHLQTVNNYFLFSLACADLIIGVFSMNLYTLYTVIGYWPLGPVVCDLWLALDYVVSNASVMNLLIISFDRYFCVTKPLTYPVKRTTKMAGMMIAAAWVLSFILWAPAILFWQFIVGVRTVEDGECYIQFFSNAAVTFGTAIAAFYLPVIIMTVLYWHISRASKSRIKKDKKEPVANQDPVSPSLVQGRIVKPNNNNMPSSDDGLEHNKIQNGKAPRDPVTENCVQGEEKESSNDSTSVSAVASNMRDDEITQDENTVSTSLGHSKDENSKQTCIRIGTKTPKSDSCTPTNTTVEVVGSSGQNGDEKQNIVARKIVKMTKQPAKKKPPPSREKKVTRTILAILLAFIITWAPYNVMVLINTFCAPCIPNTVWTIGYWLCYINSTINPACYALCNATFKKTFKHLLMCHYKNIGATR
Settings: for Emax: read-out: Efficiency, boosting of the acetylcholine effect at EC20 acetylcholine concentration

[1] = Receptor activity EC50, allosteric potency at EC20 acetylcholine, M2-GIRK1/4 reporter cells, in some cases mean of two or more determinations
[2] = Receptor activity EC50, M2-GIRK1/4 activation test, acetylcholine at EC20, allosteric potency, in some cases mean values from two or more determinations

SMILES: COC1(C)CN(c2ccc3c(=O)c(C(=O)NC45CC(C4)C5)cn(-c4c(F)cc(F)cc4F)c3n2)C1 [Example 641, N-(Bicyclo[1.1.1]pent-1-yl)-7-(3-methoxy-3-methylazetidin-1-yl)-4-oxo-1-(2,4,6-trifluorophenyl)-1,4-dihydro-1,8-naphthyridine-3-carboxamide]
- EC50 [1]: 71 nM
- Emax (M2-GIRK1/4 reporter cells): 100%

SMILES: CO[C@@H]1CCN(c2ccc3c(=O)c(C(=O)NC(C)(C)c4c(F)cccc4F)cn(-c4ccc(F)cc4F)c3n2)C1 [Example 22, 1-(2,4-Difluorophenyl)-N-[2-(2,6-difluorophenyl)propan-2-yl]-7-[(3R)-3-methoxypyrrolidin-1-yl]-4-oxo-1,4-dihydro-1,8-naphthyridine-3-carboxamide]
- EC50 [2]: 131 nM

SMILES: CC[C@H](NC(=O)c1cn(-c2c(F)cc(F)cc2F)c2nc(N(C)C[C@H](C)O)ccc2c1=O)C(F)(F)F [Example 497]
- EC50 [1]: 29 nM
- Emax (M2-GIRK1/4 reporter cells): 92%

SMILES: CC[C@@H](NC(=O)c1cn(-c2ccc(F)cc2F)c2nc(N3CCC(O)(O)C(F)C3)ccc2c1=O)C(F)(F)F (mixture of isomers) [Example 34, 1-(2,4-Difluorophenyl)-7-[3-fluoro-4,4-dihydroxypiperidin-1-yl]-4-oxo-N-[(2R)-1,1,1-trifluorobutan-2-yl]-1,4-dihydro-1,8-naphthyridine-3-carboxamide (diastereomer mixture)]
- EC50 [2]: 95 nM

SMILES: O=C(N[C@@H](C1CC1)C(F)(F)F)c1cn(-c2c(F)cc(F)cc2Cl)c2nc(N3C[C@@H](O)[C@H](O)C3)ccc2c1=O [Example 546, 1-(2-Chloro-4,6-difluorophenyl)-N-[(1 S)-1-cyclopropyl-2,2,2-trifluoroethyl]-7-[(3R,4R)-3,4-dihydroxypyrrolidin-1-yl]-4-oxo-1,4-dihydro-1,8-naphthyridine-3-carboxamide]
- EC50 [1]: 10 nM
- Emax (M2-GIRK1/4 reporter cells): 100%

SMILES: CN(CC(F)F)c1ccc2c(=O)c(C(=O)NC34CC5CC(CC(C5)C3)C4)cn(-c3ccc(F)cc3F)c2n1 [Example 112, 7-[(2,2-Difluoroethyl)(methyl)amino]-1-(2,4-difluorophenyl)-4-oxo-N-(tricyclo[3.3.1.1^3,7]dec-1-yl)-1,4-dihydro-1,8-naphthyridine-3-carboxamide]
- EC50 [2]: 29 nM

SMILES: CC[C@H](NC(=O)c1cn(-c2c(Cl)cc(F)cc2Cl)c2nc(N3CCNC3=O)ccc2c1=O)C(F)(F)F [Example 654, 1-(2,6-Dichloro-4-fluorophenyl)-4-oxo-7-(2-oxoimidazolidin-1-yl)-N-[(2S)-1,1,1-trifluorobutan-2-yl]-1,4-dihydro-1,8-naphthyridine-3-carboxamide]
- EC50 [1]: 93 nM
- Emax (M2-GIRK1/4 reporter cells): 84%

SMILES: CN(CCO)c1ccc2c(=O)c(C(=O)NC34CC5CC(CC(C5)C3)C4)cn(-c3ccc(F)cc3F)c2n1 [Example 82, 1-(2,4-Difluorophenyl)-7-[(2-hydroxyethyl)(methyl)amino]-4-oxo-N-(tricyclo[3.3.1.1^3,7]dec-1-yl)-1,4-dihydro-1,8-naphthyridine-3-carboxamide]
- EC50 [2]: 60 nM

SMILES: CC1(NC(=O)c2cn(-c3c(F)cc(F)cc3F)c3nc(N4CCNC4=O)ccc3c2=O)CC(F)(F)C1 [Example 656, N-(3,3-Difluoro-1-methylcyclobutyl)-4-oxo-7-(2-oxoimidazolidin-1-yl)-1-(2,4,6-trifluorophenyl)-1,4-dihydro-1,8-naphthyridine-3-carboxamide]
- EC50 [1]: 100 nM
- Emax (M2-GIRK1/4 reporter cells): 91.5%

SMILES: C[C@H](NC(=O)c1cn(-c2c(F)cc(F)cc2F)c2nc(N3CC4CC4(O)C3)ccc2c1=O)C(F)(F)F (mixture of isomers) [Example 316, 7-[1-Hydroxy-3-azabicyclo[3.1.0]hex-3-yl]-4-oxo-1-(2,4,6-trifluorophenyl)-N-[(2S)-1,1,1-trifluoropropan-2-yl]-1,4-dihydro-1,8-naphthyridine-3-carboxamide]
- EC50 [2]: 28 nM

SMILES: O=C(NC12CC3CC(CC(C3)C1)C2)c1cn(-c2ccc(F)cc2F)c2nc(N3CCOC(CO)C3)ccc2c1=O (racemic) [Example 118, rac-1-(2,4-Difluorophenyl)-7-[2-(hydroxymethyl)morpholin-4-yl]-4-oxo-N-(tricyclo[3.3.1.1^3,7]dec-1-yl)-1,4-dihydro-1,8-naphthyridine-3-carboxamide]
- EC50 [2]: 91 nM

SMILES: O=C(NC(CC(F)(F)F)C1CC1)c1cn(-c2c(F)cc(F)cc2F)c2nc(N3C[C@@H](O)[C@H](O)C3)ccc2c1=O (mixture of isomers) [Example 438, N-[1-Cyclopropyl-3,3,3-trifluoropropyl]-7-[(3R,4R)-3,4-dihydroxypyrrolidin-1-yl]-4-oxo-1-(2,4,6-trifluorophenyl)-1,4-dihydro-1,8-naphthyridine-3-carboxamide]
- EC50 [1]: 37 nM
- Emax (M2-GIRK1/4 reporter cells): 99.5%

SMILES: O=C(N[C@H](C(F)F)C1CC1)c1cn(-c2c(F)cc(F)cc2F)c2nc(N3C[C@@H](O)CC3=O)ccc2c1=O [Example 435, N-[(1 S)-1-Cyclopropyl-2,2-difluoroethyl]-7-[(4S)-4-hydroxy-2-oxopyrrolidin-1-yl]-4-oxo-1-(2,4,6-trifluorophenyl)-1,4-dihydro-1,8-naphthyridine-3-carboxamide]
- EC50 [1]: 84 nM
- Emax (M2-GIRK1/4 reporter cells): 100%

SMILES: CC(CC(F)(F)F)NC(=O)c1cn(-c2ccc(F)cc2F)c2nc(N(C)C)ccc2c1=O (racemic) [Example 46, rac-1-(2,4-Difluorophenyl)-7-(dimethylamino)-4-oxo-N-[4,4,4-trifluorobutan-2-yl]-1,4-dihydro-1,8-naphthyridine-3-carboxamide]
- EC50 [2]: 127 nM

SMILES: O=C(NC(C(F)(F)F)C(F)(F)F)c1cn(-c2c(F)cc(F)cc2F)c2nc(N3CCNC3=O)ccc2c1=O [Example 599, N-(1,1,1,3,3,3-Hexafluoropropan-2-yl)-4-oxo-7-(2-oxoimidazolidin-1-yl)-1-(2,4,6-trifluorophenyl)-1,4-dihydro-1,8-naphthyridine-3-carboxamide]
- EC50 [1]: 23 nM
- Emax (M2-GIRK1/4 reporter cells): 90%

SMILES: CC(C)CC(NC(=O)c1cn(-c2ccc(F)cc2F)c2nc(NCCO)ccc2c1=O)C(F)(F)F (stereo not drawn) [Example 80, 1-(2,4-Difluorophenyl)-7-[(2-hydroxyethyl)amino]-4-oxo-N-[1,1,1-trifluoro-4-methylpentan-2-yl]-1,4-dihydro-1,8-naphthyridine-3-carboxamide]
- EC50 [2]: 73 nM

SMILES: O=C(NC(c1ccccc1Cl)C(F)(F)F)c1cn(-c2c(F)cc(F)cc2F)c2nc(N3C[C@@H](O)[C@H](O)C3)ccc2c1=O (mixture of isomers) [Example 560, N-[1-(2-Chlorophenyl)-2,2,2-trifluoroethyl]-7-[(3R,4R)-3,4-dihydroxypyrrolidin-1-yl]-4-oxo-1-(2,4,6-trifluorophenyl)-1,4-dihydro-1,8-naphthyridine-3-carboxamide]
- EC50 [1]: 17 nM
- Emax (M2-GIRK1/4 reporter cells): 100%

SMILES: C[C@@H](COC(F)(F)F)NC(=O)c1cn(-c2c(F)cc(F)cc2Cl)c2nc(N3C[C@@H](O)CC3=O)ccc2c1=O [Example 421, 1-(2-Chloro-4,6-difluorophenyl)-7-[(4S)-4-hydroxy-2-oxopyrrolidin-1-yl]-4-oxo-N-[(2S)-1-(trifluoromethoxy)propan-2-yl]-1,4-dihydro-1,8-naphthyridine-3-carboxamide]
- EC50 [1]: 48 nM
- Emax (M2-GIRK1/4 reporter cells): 100%

SMILES: C[C@H](NC(=O)c1cn(-c2c(F)cc(F)cc2F)c2nc(N3C[C@@H](O)[C@H](O)C3)ccc2c1=O)C1CC1 [Example 477, N-[(1 S)-1-Cyclopropylethyl]-7-[(3R,4R)-3,4-dihydroxypyrrolidin-1-yl]-4-oxo-1-(2,4,6-trifluorophenyl)-1,4-dihydro-1,8-naphthyridine-3-carboxamide]
- EC50 [1]: 73 nM
- Emax (M2-GIRK1/4 reporter cells): 89%

SMILES: CN1CCN(c2ccc3c(=O)c(C(=O)N[C@@H](C4CC4)C(F)(F)F)cn(-c4c(F)cc(F)cc4F)c3n2)CC1 [Example 490]
- EC50 [1]: 103 nM
- Emax (M2-GIRK1/4 reporter cells): 91.5%

SMILES: O=C(NC12CC3CC(CC(C3)C1)C2)c1cn(-c2ccc(F)cc2F)c2nc(N3CCC(F)CC3)ccc2c1=O [Example 5, 1-(2,4-Difluorophenyl)-7-(4-fluoropiperidin-1-yl)-4-oxo-N-(tricyclo[3.3.1.1^3,7]dec-1-yl)-1,4-dihydro-1,8-naphthyridine-3-carboxamide]
- EC50 [2]: 31 nM

SMILES: O=C(NC12CC3CC(F)(CC(F)(C3)C1)C2)c1cn(-c2ccc(F)cc2F)c2nc(NCC(F)(F)F)ccc2c1=O [Example 92, 1-(2,4-Difluorophenyl)-N-(3,5-difluorotricyclo[3.3.1.1^3,7]dec-1-yl)-4-oxo-7-[(2,2,2-trifluoroethyl)amino]-1,4-dihydro-1,8-naphthyridine-3-carboxamide]
- EC50 [2]: 174 nM

SMILES: CC(C)Nc1ccc2c(=O)c(C(=O)NC34CC5CC(CC(C5)C3)C4)cn(-c3ccc(F)cc3F)c2n1 [Example 158, 1-(2,4-Difluorophenyl)-4-oxo-7-(propan-2-ylamino)-N-(tricyclo[3.3.1.1^3,7]dec-1-yl)-1,4-dihydro-1,8-naphthyridine-3-carboxamide]
- EC50 [2]: 184 nM

SMILES: CN(CCF)c1ccc2c(=O)c(C(=O)NC3(C(F)(F)F)CC3)cn(-c3ccc(F)cc3F)c2n1 [Example 109, 1-(2,4-Difluorophenyl)-7-[(2-fluoroethyl)(methyl)amino]-4-oxo-N-[1-(trifluoromethyl)cyclopropyl]-1,4-dihydro-1,8-naphthyridine-3-carboxamide]
- EC50 [2]: 187 nM
